From US9226912B2, “Acetyltanshinone IIA (ATA) as anticancer agent” (Nanyang Technological University, priority 2011, dated 2016)
“Also recorded” adds a separate entry of the source. Like-named read-outs stand apart in the source and are kept apart here.

Experiments:
[1] = test system: MDA-MB-231; assay: Growth inhibition at 72 h by MTT assay
[2] = test system: HER2 protein in BT474 cells; assay: HER2 protein level by Western blotting; format: cell-based, human; conditions: 6 μM ATA or 1 μM fulvestrant
Description: Cells were treated with 6 μM ATA or 1 μM fulvestrant for indicated times and analyzed by Western blotting.

[3] = test system: ROS in MDA-MB-435 cells; assay: ROS generation and its prevention by PG; format: cell-based, human; conditions: MDA-MB-435 cells
Description: (A) PG prevented ATA-induced cell death. Three concentrations of PG were tested for their protective effects on ATA-induced cell death. The cell viability was measured by SRB assay. (* p<0.01). (B) PG protected ROS generation caused by ATA treatment. […] All the experiments were performed at least three times. The results presented in this figure are the average of three experiments. Error bar represents standard deviation. Scale bar=20 μm.
(§1) It was further tested, whether PG could prevent ROS generation after ATA treatment.

[4] = test system: Bax and cytochrome c in MDA-MB-435 cells; assay: Bax translocation and cytochrome c release, cell fractionation Western blot and immunofluorescence; format: cell-based, human; conditions: 5 μM ATA, 24 h, normalized to control 1.0
Description: The concentration of ATA and PG were 5 μM and 20 μM, respectively. […] Scale bar=10 μm.
The value of CY/MT represents the ratio of integrated band intensity of cytosol fraction (CY) over corresponding integrated band intensity of mitochondrial fraction (MT). The ratio was normalized by the control group. Two proteins were used as internal markers to judge the quality of cell fractionation experiment: Cox IV for mitochondria and β-tubulin mainly for cytosol.
The subcellular localization changes of Bax and cytochrome c during ATA-induced apoptosis were first examined using immunofluorescence staining.
as §1

[5] = test system: MCF-7; assay: IC50 and LC50 of ATA at 48 h; format: cell-based; conditions: Homo sapiens, MCF7, MCF-7 breast cancer
[6] = test system: MCF-7 cells; assay: Combinatorial effect of ATA with paclitaxel, MTT assay; format: cell-based; conditions: Homo sapiens, read-out: cell growth inhibition rate
Description: The effect was determined by measuring the rates of cell growth inhibition using MTT assay. (* p<0.01, compared with cells treated with either paclitaxel alone or ATA alone).
The inventors of the present invention have shown for the first time that ATA can increase the cytotoxic effect of paclitaxel. In the tests (FIG. 16) with five concentrations of ATA at 10, 5, 2.5, 1.25, 0.625 μM and five concentrations of paclitaxel at 1000, 100, 10, 1, 0.1 nM were used.

[7] = test system: GREB1 mRNA in MCF-7 cells; assay: Real-time PCR of GREB1 mRNA level; conditions: for GREB1 mRNA level, fold of the control: 100 pM estrogen plus 6 μM ATA, charcoal-stripped medium
Description: In order to do so, the mRNA level of a non-ER regulated gene GAPDH was measured and used as a reference. MCF-7 cells cultured in the charcoal-stripped medium were used as a control.

[8] = test system: T47D; assay: Growth inhibition at 72 h by MTT assay; format: cell-based; conditions: T47D (ER+)
[9] = test system: SK-BR-3; assay: IC50 and LC50 of ATA at 48 h; format: cell-based; conditions: Homo sapiens, SK-BR-3 breast cancer
[10] = Solubility relative to TIIA; format: physicochemical; conditions: in both DMSO and PBS
Description: A mixture of TIIA (2.04 g), sodium acetate (2.5 g), acetic anhydride (18 ml), and anhydrous zinc powder (6 g) is stirred in a boiling water bath for 3 h, then immediately filtrated by using a vacuum filtration system to remove the insoluble residues. The filtrate is diluted with water (300 ml), and then heated to boil. The resulting solution is cooled at room temperature and filtered to give a solid product (1.80 g). The product can be further crystallized using 95% ethanol to produce the final product (1.51 g) acetyltanshinone IIA (ATA) with chemical designation of 1,6,6-trimethyl-8,9-dihydro-10,11-diacetoxyl-7H-naphtho[1,2-g][1]benzofuran (FIG. 2). ATA appeared in white color, which is totally different from its original red color.

[11] = target: T1, ERα in MCF-7 cells (Homo sapiens, UniProt P03372); assay: ERα protein level by immunostaining and Western blot; format: cell-based
T1 construct: endogenous in cells; host or cells: MCF-7 human breast cancer cells
T1 sequence (P03372 1-595): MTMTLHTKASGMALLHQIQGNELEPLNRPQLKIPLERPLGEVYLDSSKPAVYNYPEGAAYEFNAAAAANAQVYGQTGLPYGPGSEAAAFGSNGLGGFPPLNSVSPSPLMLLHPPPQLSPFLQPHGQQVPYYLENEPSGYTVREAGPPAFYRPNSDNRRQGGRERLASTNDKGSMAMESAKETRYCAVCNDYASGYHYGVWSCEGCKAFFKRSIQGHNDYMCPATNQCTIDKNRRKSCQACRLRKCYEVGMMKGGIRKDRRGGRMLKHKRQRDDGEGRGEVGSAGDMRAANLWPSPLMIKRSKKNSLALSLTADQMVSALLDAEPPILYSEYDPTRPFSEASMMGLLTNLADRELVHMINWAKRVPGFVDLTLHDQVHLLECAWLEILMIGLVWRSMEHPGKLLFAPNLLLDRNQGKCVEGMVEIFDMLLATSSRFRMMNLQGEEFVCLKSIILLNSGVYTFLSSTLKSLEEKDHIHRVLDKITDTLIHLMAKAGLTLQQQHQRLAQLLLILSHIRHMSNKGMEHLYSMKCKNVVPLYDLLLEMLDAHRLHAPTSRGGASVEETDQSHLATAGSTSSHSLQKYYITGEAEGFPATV
Description: (B) Western blot analysis of ERα levels in normal medium-cultured MCF-7 cells at different times with 6 μM ATA treatment.
Thus, immunostaining was used to exam the protein level of ERα in MCF-7 cells after ATA treatment. It was observed that ERα was mainly localized in the nucleus (FIG. 6A) in the control cells, which had been cultured in the charcoal-stripped medium for 4 days.
Subsequently, Western blot analysis was used to confirm this prediction. […] To ensure that ATA produced a similar effect in the MCF-7 cells under a physiological condition, Western blotting was used to determine the protein level of ERα in normal medium-cultured MCF-7 cells with or without ATA treatment.

[12] = test system: SiHa; assay: IC50 and LC50 of ATA at 48 h; format: cell-based; conditions: Homo sapiens, SiHa cervical cancer
[13] = 6 μM ATA, 3 h, charcoal-stripped medium, immunostaining

In the case of `CC(=O)Oc1c(OC(C)=O)c2c(C)coc2c2ccc3c(c12)CCCC3(C)C` [ATA, 1,6,6-trimethyl-8,9-dihydro-10,11-diacetoxyl-7H-naphtho[1,2-g][1]benzofuran], the IC50 ([1]; Homo sapiens, MDA-MB-231, 72 h) is reported as 7.98 ± 0.18 µM, the inhibition at 3.13 µM ([1]; Homo sapiens, MDA-MB-231, 72 h, read-out: growth inhibition rate) is reported as 32.3% and the “IC50 value at 72 h lower in ER-positive than ER-negative cells” value ([1]; MCF-7 and T47D versus MDA-MB-231) is reported as 5.4-5.7 fold. For the same compound, the “IC50 ratio of tamoxifen/ATA” value ([1]; MDA-MB-231 (ER−), 72 h) was 2.7, the “Ratio of ER−/ER+ 231/MCF-7” value ([1]; ratio of IC50 at 72 h, MDA-MB-231 over MCF-7) was 5.4 and the “Ratio of ER−/ER+ 231/T47D” value ([1]; ratio of IC50 at 72 h, MDA-MB-231 over T47D) was 5.7. For the same compound, the “level of HER2 protein” value [2] was “can reduce the level of HER2 protein; also recorded: reduced the level of ERα and HER2”, the “time of maximum ROS level after ATA addition” value [3] was 2 h and the “ratio of Bax level in the cytosol to that in the mitochondria” value [4] was under 0.1. For the same compound, the “ratio of cytochrome c level in cytosol to that in mitochondria” value [4] was 7.5, the CC50 [5] was 7.64 ± 0.3 µM and the IC50 [5] was 1.39 ± 0.64 µM. For the same compound, the inhibition at 2.5 µM ([6]; MCF7, 2.5 μM ATA in combination with paclitaxel 1 nM) was about 89%, the inhibition at 2.5 µM ([6]; MCF7, ATA alone at 2.5 μM) was 71% and the “GREB1 mRNA level, fold of the control” value ([7]; 4 h) was 6.4 fold. The “GREB1 mRNA level, fold of the control” value ([7]; 12 h) was 7.9 fold, the “GREB1 level of the control” value ([7]; 100 pM estrogen plus 6 μM compound, 24 h, normal medium) was “about 50%” and the IC50 ([8]; Homo sapiens) was 1.4 ± 0.2 µM. For the same compound, the “IC50 ratio of tamoxifen/ATA” value [8] was 6.7, the IC50 [9] was 0.29 µM and the CC50 ([9]; kill 50% of the cells) was 5.1 ± 1.92 µM. The “higher solubility than TIIA” value [10] was 22 fold, the ERα protein level ([11]; 6 μM ATA, 24 and 48 h, normal medium, Western blot) was “significantly decreased” and the “ERα fluorescence intensity in the cytosol” value [11, 13] was “remained unchanged”. The “level of ERα in the nucleus” value [11, 13] was “greatly reduced”, the “total protein level of ERα” value ([11]; 4 h, charcoal-stripped medium, Western blot) was “slightly reduced” and the “total protein level of ERα” value ([11]; after 8 h, charcoal-stripped medium, Western blot) was “significantly reduced”. It also gave a CC50 [12] of 12.3 ± 0.68 µM and an IC50 [12] of 1.96 ± 0.49 µM.
